These results are taken from patent US20240225983A1, “COMPOSITIONS AND METHODS FOR PREVENTING OR REDUCING AUTOXIDATION OF FRAGRANCE AND FOOD OILS” (Firmenich SA, priority 2021, published 2024).

Counter-ions that a name gives are not always drawn.

Assay [1] in a line: POV of corn oil treated with SOP (POV titration). The note with it: 0.4 mL in 8 mL corn oil, versus untreated corn oil (FIG. 3, 4). As to the method: The POV of these solutions was measured periodically after standing on the laboratory benchtop at ambient light and temperature conditions.
Into a 15 mL glass vial was placed 0.201 gm of AKG and 2.011 gm of DET. The mixture was stirred with a small magnetic stirrer at room temperature over a weekend (approximately 3 days). However, not all of the AKG dissolved, so the vial was placed in a heating block at 90° C. for 15 minutes, and a clear solution was obtained. Upon cooling and standing for several days, no solid precipitated out. This material (0.4 mL) was diluted into 8 mL of corn oil to start the experiment. A sample was also made from just 0.4 mL of DET in 8 mL of corn oil. POV titration measurements were taken periodically of each sample versus untreated corn oil.
The performance of the SOPs were monitored by POV titration as described in Flavor & Fragrance Journal, M. Calandra and Y. Wang, 2020, 35:107-113 or as per the IFRA POV method (see www.ifraorg.org).

Assay [2] in a line: Aldehyde levels in salad dressing (DNPH derivatization, HPLC). The note with it: ~2.7% (w/w) in ranch dressing, room temperature, versus untreated (FIG. 9). The protocol:
Aldehyde levels in corn oil or other foods (such as salad dressing) were measured using the DNPH derivatization followed by HPLC analysis method (J. Ag. Food Chem. Deng, F-Y. et al, (2014) 62, 52, 12545-12552; Food Res. Internat., Cao, J. et al, (2014) 64, 901-907). Alternatively, or in addition to aldehyde measurements by HPLC, organoleptic evaluation to assess the level of rancidity in a sample was done.
Treatment of Salad Dressing with a 2-Oxoacid Salt • Sample: Ranch dressing (chili lime flavor) • 2-Oxoacid salt used: Phenyl pyruvic acid dimethyldecylammonium salt • Dosage: ˜2.7% (w/w) (0.4 g of the salt was added to 15 g of salad dressing). • Storage conditions: Room temperature, capped loosely, and mixed periodically.

As to `CCOC(=O)C(O)C(O)C(=O)OCC` (centres unmarked) [DET, diethyl tartrate], the “POV of corn oil” value in assay [1] is recorded as “some measurable activity toward reducing the POV”.

For “Phenyl pyruvic acid dimethyldecylammonium salt”, in assay [2], the “aldehyde concentration (hexanal or 2-nonenal) in salad dressing” value is on record as “aldehyde levels were lower”.
